TGI and GI50 data for 24 molecules are collected here from PubChem BioAssay (NCI).

What all share (assay): NCI anticancer screen, dose series, 48 h
The subject of test [1] is LOX IMVI melanoma.
For test [2], the system named is DLD-1 colon.
Test [3] has as its system COLO 205 colon.
The subject of test [4] is SF-539 CNS.
Test [5] concerns SR leukemia.
The subject of test [6] is NCI-H460 lung.
Test [7] deals with UO-31 renal.
The test system of test [8] is SF-295 CNS.
Test [9] has as its system HOP-92 NSCLC.
Test [10] has as its system UACC-257 melanoma.

Molecules are shown by their SMILES.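 Five concentrations, 48 hours, 96-well plates. GI50 = concentration required for 50% inhibition of growth. TGI: total growth inhibition.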

Turning to `O=C1NC2CCC(C2)C1c1ccccc1` (configuration not stated), the TGI in [1], in test [2], in [3], in test [4], in test [5] and in test [6] was greater than 100 µM in each case. For the same molecule, the TGI in test [7] and in [8] was greater than 100 µM each time.

For `NC1CCCCC1N.O=S(=O)([O-])CCCN1CCOCC1.O=S(=O)([O-])CCCN1CCOCC1.[Pt+4]`, the GI50 is 16.2 µM in [1]; 28.3 µM in test [2]; 10.7 µM in [3]; 27.5 µM in [4]; 3.54 µM in test [6]; 32.4 µM in test [9]. The figures for the GI50 in test [7], in [8] and in test [10] were 19.3 µM, 15.5 µM and 54.6 µM, respectively. Moreover, the TGI is greater than 59.2 µM in test [1]; greater than 100 µM in test [2]; 42.8 µM in test [3]; greater than 100 µM in test [4]; greater than 100 µM in [6]; greater than 100 µM in [9]. For the same molecule, the TGI in [7], in test [8] and in test [10] was greater than 100 µM each time.

In the case of `CN(C)CC/C(=N\Nc1ccccc1)c1ccccc1`, the TGI in test [2] was greater than 100 µM; in test [3], 33.5 µM; in test [4], 32.6 µM; in test [5], greater than 100 µM; in test [9] it was 36.5 µM; in [7], 22.8 µM. This molecule gave a TGI in [8] of 6.89 µM.

Consider `COC(=O)C(=O)C(C#N)c1ccc(CC#N)cc1` (configuration not stated), for which the TGI in test [1], in test [2], in test [4], in test [5], in [9] and in [7] was greater than 100 µM each time. Also, the TGI in test [8] and in [10] was greater than 100 µM throughout.

As for `Cc1cc(C)nc(NS(=O)(=O)c2ccc(Nc3c4ccc(Cl)cc4nc4c(C(=O)Nc5ccc(S(=O)(=O)N=C(N)N)cc5)cccc34)cc2)n1`, the TGI in test [1], in [2], in test [4], in test [6], in test [7] and in [8] was greater than 100 µM throughout. This molecule also showed a TGI in test [10] greater than 100 µM.

In the case of `Cc1ccc(NC(=O)CCC/C(CC(=O)c2ccc(Br)cc2)=N/NC(=O)CC#N)cc1`, the TGI in test [1], in test [2], in test [3], in [6], in [9] and in test [7] was greater than 100 µM in each case. Further, the TGI in test [8] and in [10] was greater than 100 µM throughout.

Consider `C1CCN(C2OC3C(COC3N3CCCCC3)OC2OC2CCO[C@@H]2N2CCCCC2)CC1` (some centres not stated), for which the TGI in [1] was greater than 100 µM; in test [2], greater than 100 µM; in test [3], greater than 100 µM; in test [4], 46.8 µM; in test [6] it was greater than 100 µM; in test [9] it was 47.5 µM. Besides, the TGI is greater than 100 µM in [7], greater than 100 µM in test [8] and 88.1 µM in [10].

Consider `CC[O-].CC[O-].O=C1C(c2ccccc2)=C([O-])c2ccccc21.O=C1C(c2ccccc2)=C([O-])c2ccccc21.[Ti+4]`, for which the GI50 in [1], in [2], in test [3], in [4], in [6] and in test [9] was greater than 100 µM each time. In addition, the GI50 in [8] and in test [10] was greater than 100 µM throughout. The TGI in test [1], in test [2], in [3], in test [4], in [6] and in [9] was greater than 100 µM throughout. In addition, the TGI in [8] and in [10] was greater than 100 µM throughout.

As for `CCCC(C)C[C@@H](C)CC(C)/C=C(\C)c1oc(=O)c(C)c(O)c1C` (some centres not stated) (tested in a mixture with another compound), the TGI in [1] turned out to be 31.6 µM; in test [2] it was 27.8 µM; in test [3], 46 µM; in test [4], 30.1 µM; in [6], 25.1 µM; in test [7], 27 µM. The TGI in [8] was found to be 25.9 µM; in test [10], 29.2 µM.

Turning to `CC/C(=C(/CC)c1ccc(O)cc1)c1ccc([O-])cc1.CC/C(=C(/CC)c1ccc(O)cc1)c1ccc([O-])cc1.O=C([CH-]C(=O)c1ccccc1)c1ccccc1.O=C([CH-]C(=O)c1ccccc1)c1ccccc1.[Ti+4]`, the GI50 is 12.5 µM in test [1]; 10.8 µM in test [2]; 33.8 µM in [3]; 9.89 µM in test [5]; 13.1 µM in test [6]; 14.2 µM in [9]. Moreover, the GI50 in [7] was 21.8 µM; in test [8], 17.9 µM; in test [10], 15.1 µM. Moreover, the TGI in test [1] is 27.5 µM; in test [2], 28.9 µM; in test [3] it was greater than 100 µM; in test [5] it was greater than 100 µM; in test [6], 25.8 µM; in test [9], 27.2 µM. Moreover, the figures for the TGI in test [7], in test [8] and in test [10] were 38.6 µM, 35 µM and 35.9 µM, respectively.

As for `CCc1nc(N)nc(C(=O)NCCNC(=O)c2nc(N)nc(CC)c2C)c1C`, the TGI in test [1], in test [2], in test [4], in test [6], in test [9] and in test [7] was greater than 100 µM in each case. Besides, the TGI in test [8] and in test [10] was greater than 100 µM in each case.

Consider `CCn1c(O)c(C=N)c(=O)n(CC)c1=O`, for which the TGI in test [1], in test [2], in test [3], in [4], in test [6] and in test [9] was greater than 100 µM throughout. Also, the TGI in test [7], in test [8] and in test [10] was greater than 100 µM in each case.

In the case of `CSc1nc(NC(=O)O)c(N(C(C)=O)C(=O)O)c(=O)n1C`, the TGI in test [1], in [2], in test [3], in test [4], in test [6] and in test [9] was greater than 100 µM each time. Moreover, the TGI in [7], in test [8] and in test [10] was greater than 100 µM in each case.

`NC(=S)N/N=C(\C(=O)Nc1cccc([N+](=O)[O-])c1)c1nc2ccc([N+](=O)[O-])cc2[nH]c1=O`: the TGI in test [1], in test [2], in [3], in [4], in test [6] and in test [9] was greater than 100 µM each time. Further, the TGI in test [7], in test [8] and in test [10] was greater than 100 µM in each case.

Regarding `CCC[CH2][Sn]([CH2]CCC)([O]C(=O)C(N)CSC)[O]C(=O)C(N)CSC` (configuration not stated), the GI50 in test [1] is 7.17 µM; in test [2], 6.44 µM; in test [3] it was 6.5 µM; in [4], 13.3 µM; in test [6], 29.7 µM; in [9], 8.05 µM. Also, the GI50 in [7] is 14.3 µM; in test [10], 11.8 µM. For the same molecule, the TGI in [1] is 26.3 µM; in test [2] it was 18.3 µM; in test [3], 19.9 µM; in [4] it was 26.7 µM; in test [6], 90.1 µM; in [9], 20.3 µM. The TGI in [7] came out at 27.4 µM; in test [10], 26.1 µM.

Regarding `COc1ccc(-c2nc3ncccn3c2/C=C/C(=O)c2cc(OC)c(OC)c(OC)c2)cc1`, the GI50 was 1.46 µM in test [1]; 1.7 µM in test [3]; 1.36 µM in test [4]; 1.53 µM in [5]; 1.43 µM in test [6]; 1.43 µM in test [9]. Further, the figures for the GI50 in [7], in test [8] and in [10] were 0.514 µM, 2.39 µM and 1.88 µM, respectively. The TGI in test [1] is 3 µM; in [3], 3.07 µM; in [4], 2.95 µM; in [5], greater than 100 µM; in [6], 2.74 µM; in test [9], 12 µM. Further, the TGI in [7] was 4.17 µM; in [8], 4.83 µM; in test [10], 4.81 µM.

In the case of `O=c1ccnc2c1ccc1[nH]cccc12`, the TGI in [1], in test [2], in test [3], in [4], in [5] and in [6] was greater than 100 µM throughout. Besides, the TGI in [7] and in test [10] was greater than 100 µM in each case.

As to `CC1(C)CC(n2cnc(-c3ccc(F)cc3)c2-c2ccnc(N)n2)CC(C)(C)N1`, the GI50 in test [1] is greater than 19.7 µM; in test [3], 12.7 µM; in [4] it was greater than 25 µM; in test [5] it was greater than 19.3 µM; in [6], 11.9 µM; in [9], 7.19 µM. For the same molecule, the GI50 is 16.6 µM in [7], greater than 25 µM in [8] and greater than 25 µM in [10]. Moreover, the TGI in [1], in test [3], in [4], in [5], in test [6] and in test [9] was greater than 25 µM throughout. For the same molecule, the TGI in test [7], in test [8] and in [10] was greater than 25 µM each time.

As to `Cc1ccc(/C=C/C(=O)c2sc(-c3cccnc3)nc2C)cc1`, the TGI in [1], in test [2], in [3], in test [4], in test [6] and in test [9] was greater than 100 µM each time. For the same molecule, the TGI in [7], in test [8] and in [10] was greater than 100 µM in each case.

Regarding `COc1ccc2cc3[n+](cc2c1OC)CCc1cc(O)c(O)cc1-3`, the TGI in [1], in test [2], in [3], in test [4], in [6] and in test [9] was greater than 100 µM in each case. Further, the TGI in test [7], in [8] and in test [10] was greater than 100 µM throughout.

With `Cc1ccc(NC(=O)CC(=O)n2nc(-c3ccccc3)c(N=Nc3ccccc3Cl)c2-c2ccccc2)cc1`, the TGI is greater than 100 µM in test [1]; greater than 100 µM in [3]; greater than 100 µM in [4]; greater than 100 µM in test [5]; greater than 100 µM in test [6]; 63 µM in [9]. Besides, the TGI in test [7], in test [8] and in test [10] was greater than 100 µM each time. In addition, the GI50 in test [3], in test [7] and in [10] was greater than 100 µM each time.

On to `c1cc(OCCN2CCCCC2)ccc1CNc1ccc2nc(CCC3CCCCC3)[nH]c2c1`, for which the GI50 in test [1] is 1.75 µM; in [3], 1.76 µM; in test [4] it was 1.57 µM; in test [5], 0.617 µM; in test [6], 1.94 µM; in test [9], 0.565 µM. Further, the GI50 in test [7] is 1.49 µM; in test [8], 1.98 µM; in [10] it was 1.91 µM. Moreover, the TGI turned out to be 3.19 µM in test [1]; 3.31 µM in test [3]; 3.06 µM in test [4]; 3.01 µM in [5]; 3.97 µM in test [6]; 2.45 µM in [9]. Moreover, the TGI in test [7] was determined as 2.85 µM; in test [8], 3.88 µM; in test [10] it was 3.89 µM.

With `O=C(O)CC12C3C4C5C3C1C5C42` (configuration not stated), the TGI in test [1], in [2], in [3], in test [4], in test [6] and in [7] was greater than 100 µM each time. Further, the TGI in test [8] and in test [10] was greater than 100 µM each time.

As to `COC(=O)C12CC(c3ccccc31)C1C(=O)OC(=O)C12` (configuration not stated), the TGI in test [1], in [2], in test [3], in [4], in test [6] and in [9] was greater than 100 µM in each case. Moreover, the TGI in test [7], in [8] and in test [10] was greater than 100 µM throughout.
